This is an account of results in patent publication US7504400B2, “MTP inhibiting aryl piperydines or piperazines substituted with 5-membered heterocycles” (Janssen Pharmaceutica N.V., priority 2004, dated 2009).

Each structure is given as a SMILES string.

For the assay, the system named is Secretion of ApoB. Put plainly: Quantification of the secretion of ApoB in HepG2 cells. The assay is classed as cell-based. The settings on record: Homo sapiens, HepG2, 24 h, 24 hours of incubation with test compound, immunoprecipitation of apoB from medium, read-out: pIC50 value (=-log IC50 value), secretion of ApoB (converted). The procedure:
HepG2 cells were cultured in 24-well plates in MEM Rega 3 containing 10% fetal calf serum. At 70% confluency, the medium was changed and the test compound or carrier (DMSO, 0.4% final concentration) was added. After 24 hours of incubation, the medium was transferred to Eppendorf tubes and cleared by centrifugation. A sheep antibody directed against either apoB was added to the supernatant and the mixture was kept at 8° C. for 24 hours. Then, rabbit anti-sheep antibody was added and the immune complex was allowed to precipitate for 24 hours at 8° C. The immunoprecipitate was pelleted by centrifugation for 25 minutes at 1320 g and washed twice with a buffer containing 40 mM Mops, 40 mM NaH2PO4, 100 mM NaF, 0.2 mM DTT, 5 mM EDTA, 5 mM EGTA, 1% Triton-X-100, 0.5% sodium deoxycholate (DOC), 0.1% SDS, 0.2 μM leupeptin and 0.2 μM PMSF. Radioactivity in the pellet was quantified by liquid scintillation-counting. The IC50 values are usually converted to pIC50 values (=−log IC50 value) for ease of use.
A word on the IC50: it is the point on the concentration scale where inhibition reaches its midpoint. With `C=CCNC(=O)C(CN1CCN(c2ccc(-n3cnn(C(C)C)c3=O)cc2)CC1)c1ccccc1` (stereo not shown) [Compound 103], the IC50 is 31.6 to 316 nM.

On to `CC(C)n1ncn(-c2ccc(N3CCN(CC(C(=O)NC4CC4)c4ccccc4)CC3)cc2)c1=O` (stereo not shown) [Compound 104], for which the IC50 is 316 to 3160 nM.

Regarding `COCCNC(=O)C(CN1CCN(c2ccc(-n3cnn(C(C)C)c3=O)cc2)CC1)c1ccccc1` (stereo not shown) [Compound 105], the IC50 was 316 to 3160 nM.

Turning to `CCCCNC(=O)C(CN1CCN(c2ccc(-n3cnn(C(C)C)c3=O)cc2)CC1)c1ccccc1` (stereo not shown) [Compound 106], the IC50 is 31.6 to 316 nM.

For the compound `CC(C)CNC(=O)C(CN1CCN(c2ccc(-n3cnn(C(C)C)c3=O)cc2)CC1)c1ccccc1` (stereo not shown) [Compound 107], the IC50 was 316 to 3160 nM.

With `COC(CNC(=O)C(CN1CCN(c2ccc(-n3cnn(C(C)C)c3=O)cc2)CC1)c1ccccc1)OC` (stereo not shown) [Compound 108], the IC50 was 316 to 3160 nM.

`CCCCCNC(=O)C(CN1CCN(c2ccc(-n3cnn(C(C)C)c3=O)cc2)CC1)c1ccccc1` (stereo not shown) [Compound 109]: the IC50 is 31.6 to 316 nM.

Turning to `CCC(C)n1ncn(-c2ccc(N3CCN(C(C(=O)NCCC#N)c4ccccc4)CC3)cc2)c1=O` (stereo not shown) [Compound 110], the IC50 is 31.6 to 316 nM.

In the case of `CCCCCNC(=O)C(c1ccccc1)N1CCN(c2ccc(-n3c(C)nn(C(C)C)c3=O)cc2)CC1` (stereo not shown) [Compound 111], the IC50 was 316 to 3160 nM.

Turning to `Cc1nn(C(C)C)c(=O)n1-c1ccc(N2CCN(C(C(=O)Nc3ccccc3)c3ccccc3)CC2)cc1` (stereo not shown) [Compound 112], the IC50 is 316 to 3160 nM.

For `CCNC(=O)C(c1ccccc1)N1CCN(c2ccc(-n3ncn(C(C)C)c3=O)cc2)CC1` (stereo not shown) [Compound 113], the IC50 is 31.6 to 316 nM.

Take `CCCNC(=O)C(c1ccccc1)N1CCN(c2ccc(-n3ncn(C(C)C)c3=O)cc2)CC1` (stereo not shown) [Compound 114]: the IC50 is 316 to 3160 nM.

On to `CC(C)NC(=O)C(c1ccccc1)N1CCN(c2ccc(-n3ncn(C(C)C)c3=O)cc2)CC1` (stereo not shown) [Compound 115], for which the IC50 was 316 to 3160 nM.

On to `C=CCNC(=O)C(c1ccccc1)N1CCN(c2ccc(-n3ncn(C(C)C)c3=O)cc2)CC1` (stereo not shown) [Compound 116], for which the IC50 was 316 to 3160 nM.

As to `COCCNC(=O)C(c1ccccc1)N1CCN(c2ccc(-n3ncn(C(C)C)c3=O)cc2)CC1` (stereo not shown) [Compound 117], the half-inhibitory concentration (IC50) is 316 to 3160 nM.

As for `CCCCNC(=O)C(c1ccccc1)N1CCN(c2ccc(-n3ncn(C(C)C)c3=O)cc2)CC1` (stereo not shown) [Compound 118], the IC50 was 316 to 3160 nM.

Regarding `CC(C)CNC(=O)C(c1ccccc1)N1CCN(c2ccc(-n3ncn(C(C)C)c3=O)cc2)CC1` (stereo not shown) [Compound 119], the IC50 was 316 to 3160 nM.

As to `CCCCCNC(=O)C(c1ccccc1)N1CCN(c2ccc(-n3ncn(C(C)C)c3=O)cc2)CC1` (stereo not shown) [Compound 120], the IC50 was 316 to 3160 nM.

With `CC(C)n1cnn(-c2ccc(N3CCN(C(C(=O)NCc4ccccn4)c4ccccc4)CC3)cc2)c1=O` (stereo not shown) [Compound 121], the IC50 was 316 to 3160 nM.

As for `CC(C)n1cnn(-c2ccc(N3CCN(C(C(=O)NCC(F)(F)F)c4ccccc4)CC3)cc2)c1=O` (stereo not shown) [Compound 122], the IC50 is 316 to 3160 nM.

For `CC(C)n1cnn(-c2ccc(N3CCN(C(C(=O)NCc4ccccc4)c4ccccc4)CC3)cc2)c1=O` (stereo not shown) [Compound 123], the IC50 was 31.6 to 316 nM.

As to `CCCn1ncn(-c2ccc(N3CCN(C(C(=O)Nc4ccccc4)c4ccccc4)CC3)cc2)c1=O` (stereo not shown) [Compound 124], the IC50 is 31.6 to 316 nM.

As to `Cc1cnc(NC(=O)C(c2ccccc2)N2CCN(c3ccc(-n4cnn(C(C)C)c4=O)cc3)CC2)s1` (stereo not shown) [Compound 125], the IC50 was 31.6 to 316 nM.

Turning to `CC(C)n1ncn(-c2ccc(N3CCN(C(C(=O)NCc4ccc(N)cc4)c4ccccc4)CC3)cc2)c1=O` (stereo not shown) [Compound 126], the IC50 was 316 to 3160 nM.

As to `CC(C)n1ncn(-c2ccc(N3CCN(C(C(=O)NCc4nc5ccccc5[nH]4)c4ccccc4)CC3)cc2)c1=O` (stereo not shown) [Compound 127], the half-maximal inhibitory concentration (IC50) was 316 to 3160 nM.

`CCCNC(=O)C(CN1CCN(c2ccc(-n3cnn(C(C)C)c3=O)cc2)CC1)c1ccccc1` (stereo not shown) [Compound 128]: the IC50 is 31.6 to 316 nM.

Consider `CC(C)n1ncn(-c2ccc(N3CCN(CC(C(=O)Nc4ccccc4)c4ccccc4)CC3)cc2)c1=O` (stereo not shown) [Compound 129], for which the IC50 is 316 to 3160 nM.

Consider `CC(C)n1ncn(-c2ccc(N3CCN(CC(C(=O)NCc4ccccc4)c4ccccc4)CC3)cc2)c1=O` (stereo not shown) [Compound 130], for which the IC50 was 316 to 3160 nM.

`COCCNC(=O)C(c1ccccc1)N1CCN(c2ccc(-n3cnn(C(C)C)c3=O)cc2)CC1` (stereo not shown) [Compound 131]: the IC50 was 316 to 3160 nM.

As to `CC(C)n1ncn(-c2ccc(N3CCN(C(C(=O)NCCC#N)c4ccccc4)CC3)cc2)c1=O` (stereo not shown) [Compound 132], the IC50 was 316 to 3160 nM.

Take `CCNC(=O)C(c1ccccc1)(c1ccccc1)N1CCN(c2ccc(-n3cnn(C(C)C)c3=O)cc2)CC1` [Compound 133]: the IC50 was 316 to 3160 nM.

Turning to `CCCNC(=O)C(c1ccccc1)(c1ccccc1)N1CCN(c2ccc(-n3cnn(C(C)C)c3=O)cc2)CC1` [Compound 134], the IC50 is 316 to 3160 nM.

As to `CC(C)NC(=O)C(c1ccccc1)(c1ccccc1)N1CCN(c2ccc(-n3cnn(C(C)C)c3=O)cc2)CC1` [Compound 135], the IC50 was 316 to 3160 nM.

As to `CNC(=O)C(c1ccccc1)N1CCN(c2ccc(-n3cnn(C(C)C)c3=O)cc2)CC1` (stereo not shown) [Compound 136], the IC50 is 316 to 3160 nM.

Regarding `CC(C)n1ncn(-c2ccc(N3CCN(C(C(=O)N(C)C)c4ccccc4)CC3)cc2)c1=O` (stereo not shown) [Compound 137], the IC50 is 316 to 3160 nM.

Turning to `CCOC(=O)C(CN1CCN(c2ccc(-n3cnn(C(C)C)c3=O)cc2)CC1)c1ccccc1` (stereo not shown) [Compound 138], the IC50 was 316 to 3160 nM.

As for `CCNC(=O)C(c1ccccc1)N1CCC(c2ccc(-n3cnn(C(C)C)c3=O)cc2)CC1` (stereo not shown) [Compound 139], the IC50 was 31.6 to 316 nM.

As to `CC(C)NC(=O)C(c1ccccc1)N1CCC(c2ccc(-n3cnn(C(C)C)c3=O)cc2)CC1` (stereo not shown) [Compound 140], the IC50 is 31.6 to 316 nM.

In the case of `CNC(=O)C(c1ccccc1)N1CCC(c2ccc(-n3cnn(C(C)C)c3=O)cc2)CC1` (stereo not shown) [Compound 142], the IC50 is 31.6 to 316 nM.

For the compound `CC(C)n1ncn(-c2ccc(C3CCN(C(C(=O)NCC(F)(F)F)c4ccccc4)CC3)cc2)c1=O` (stereo not shown) [Compound 143], the IC50 is 31.6 to 316 nM.

As to `CC(C)n1ncn(-c2ccc(C3CCN(C(C(=O)N(C)C)c4ccccc4)CC3)cc2)c1=O` (stereo not shown) [Compound 144], the IC50 is 316 to 3160 nM.

In the case of `CC(C)n1ncn(-c2ccc(N3CCN(C(C(N)=O)c4ccccc4)CC3)cc2)c1=O` (stereo not shown) [Compound 145], the IC50 was 316 to 3160 nM.

`COC(=O)C(c1ccccc1)N1CCN(c2ccc(-n3cnn(C(C)C)c3=O)cn2)CC1` (stereo not shown) [Compound 146]: the IC50 is 316 to 3160 nM.

For `CC(C)n1ncn(-c2ccc(N3CCN(CCC(C(=O)N(C)C)(c4ccccc4)c4ccccc4)CC3)cc2)c1=O` [Compound 147], the IC50 was 316 to 3160 nM.

Consider `CCCNC(=O)C(c1ccccc1)C1CCN(c2ccc(-n3cnn(CC)c3=O)cc2)CC1` (stereo not shown) [Compound 148], for which the IC50 is 316 to 3160 nM.

As to `CCCNC(=O)C(c1ccccc1)C1CCN(c2ccc(-n3cnn(CCC)c3=O)cc2)CC1` (stereo not shown) [Compound 149], the IC50 was 316 to 3160 nM.

For `CCCCn1ncn(-c2ccc(N3CCC(C(C(=O)NCCC)c4ccccc4)CC3)cc2)c1=O` (stereo not shown) [Compound 150], the IC50 was 31.6 to 316 nM.

Take `CCCCCn1ncn(-c2ccc(N3CCC(C(C(=O)NCCC)c4ccccc4)CC3)cc2)c1=O` (stereo not shown) [Compound 151]: the IC50 was 31.6 to 316 nM.

With `C=CCn1ncn(-c2ccc(N3CCC(C(C(=O)NCCC)c4ccccc4)CC3)cc2)c1=O` (stereo not shown) [Compound 152], the IC50 is 316 to 3160 nM.
